According to patent US20260015337A1 (Trawsfynydd Therapeutics, Inc., priority 2022, published 2026):

Target: 3CL Protease (Severe acute respiratory syndrome coronavirus 2, UniProt P0DTD1)
Experiment: 3CL Protease enzymatic activity assay (BPS Bioscience Assay Kit #78043-1, fluorescence)
Type: biochemical, SARS-CoV-2
Settings: Table A; 30 min preincubation, 40 μM substrate, 4 hours at room temperature; read-out: IC50, nM (3CL Protease enzymatic activity)
Experimental: For determination of 3CL Protease enzymatic activity was used Assay Kit of BPS Bioscience, San Diego, CA (Catalog #78043-1).
All samples and controls should be tested in duplicate. • 1) Just before use, dilute 0.5 M DTT 500 times into the 3CL Protease Assay Buffer to obtain a DTT concentration of 1 mM. For example, add 10 μl of 0.5 M DTT to 5 ml of assay buffer. Prepare enough DTT-containing buffer as required for the assay. Store the remaining assay buffer at −20° C. • 2) Thaw the 3CL Protease on ice. Briefly spin the tube containing the enzyme to recover the full content of the tube. Note: 3CL Protease enzyme is sensitive to freeze/thaw cycles. […] Note: The exact concentration and volume of enzyme is lot-specific and will be indicated on the tube. Calculate required dilution from the information in the tube. It may be desirable to dilute the enzyme serially to avoid using large amounts of protease assay buffer for the dilution. • 4) Add 30 μl of diluted 3CL Protease to the wells designated as “Positive Control,” “Inhibitor Control,” and “Test Inhibitor.” Add 30 μl of Assay Buffer (containing 1 mM DTT) to the “Blank” wells. • 5) Dilute the 50 μg GC376 in 200 μl of Assay Buffer to obtain a 500 μM solution. Add 10 μl of GC376 (500 μM) to the wells labeled “Inhibitor Control”. Aliquot and store the remaining solution at −80° C. • 6) Prepare the Test Inhibitor. The final concentration of DMSO in the assay should not exceed 1%. If the Test Inhibitor is dissolved in DMSO, make a 100-fold higher concentration of the compound than the highest desired concentration. Then make a 20-fold dilution in 1× Assay Buffer (containing DTT). At this step the compound concentration is 5-fold higher than the final concentration. If the test inhibitor is dissolved in water, make a 5-fold higher concentration of the test compound than the final desired concentration in the Assay buffer (containing DTT). Add 10 μl of Test Inhibitor to each well designated “Test Inhibitor”. • 7) Diluent Solution (no inhibitor): add 10 μl of assay buffer (if the test compound is water soluble and was diluted in assay buffer) or 10 μl of 5% DMSO diluted in assay buffer (if DMSO was used to dissolve the test inhibitor) to “Blank” and “Positive Control” wells.
• 8) Preincubate for 30 min at room temperature with slow shaking. • 9) Dilute the 25 μl of 3CL Protease substrate (10 mM) in 1.25 ml of the Assay Buffer containing DTT, to make a […] solution. The final concentration of the 3CL Protease substrate in a 50 μl reaction is 40 μM. • 10) Start the reaction by adding 10 μl of the substrate solution to all the wells. Seal the plate with the plate sealer and incubate for 4 hours at room temperature with slow shaking. • 11) Measure the fluorescence intensity in a microtiter plate-reader fluorometer (Tecan Spark Cyto) capable of excitation at a wavelength 360 nm and detection of emission at a wavelength 460 nm. The fluorescence intensity can also be measured kinetically. The “Blank” value is subtracted from all other values. • The % inhibition was then used to calculate the IC50 values.

Question: `CC(C)(C)[C@H](NC(=O)C(F)(F)F)C(=O)N1C[C@H]2C([C@H]1C(=O)NC(C#N)Cc1cc3ccc(F)cc3[nH]c1=O)C2(C)C` (stereo in doubt) [Compound 106, (1R,2S,5S)—N-(1-Cyano-2-(7-fluoro-2-oxo-1,2-dihydroquinolin-3-yl)ethyl)-3-((S)-3,3-dimethyl-2-(2,2,2-trifluoroacetamido)butanoyl)-6,6-dimethyl-3-azabicyclo[3.1.0]hexane-2-carboxamide] was tested. Which IC50 did it give?
Answer: 100 to 250 nM

Question: `Cc1ccc2[nH]c(=O)c(C[C@@H](C#N)NC(=O)[C@@H]3[C@@H]4[C@H](CN3C(=O)Cc3cc(C(F)(F)F)n[nH]3)C4(C)C)cc2c1` [Compound 191, (1R,2S,5S)—N—((S)-1-Cyano-2-(6-methyl-2-oxo-1,2-dihydroquinolin-3-yl)ethyl)-6,6-dimethyl-3-(2-(3-(trifluoromethyl)-1H-pyrazol-5-yl)acetyl)-3-azabicyclo[3.1.0]hexane-2-carboxamide] was tested. Which IC50 did it give?
Answer: ≥ 1000 nM

Question: Which IC50 does the source give for `Cc1ccc2[nH]c(=O)c(CC(C#N)NC(=O)[C@@H]3C4[C@H](CN3C(=O)[C@@H](NC(=O)OC(C)(C)C)C(C)(C)C)C4(C)C)cc2c1` (stereo in doubt) [Compound 171, tert-Butyl ((2S)-1-((1R,2S,5S)-2-((1-cyano-2-(6-methyl-2-oxo-1,2-dihydroquinolin-3-yl)ethyl)carbamoyl)-6,6-dimethyl-3-azabicyclo[3.1.0]hexan-3-yl)-3,3-dimethyl-1-oxobutan-2-yl)carbamate] here?
Answer: 250 to 500 nM

Question: With `Cc1ccc2[nH]c(=O)c(C[C@@H](C#N)NC(=O)[C@@H]3C4[C@H](CN3C(=O)[C@@H](Nc3nccc(C)n3)C(C)(C)C)C4(C)C)cc2c1` (stereo in doubt) [Compound 160, (1R,2S,5S)—N—((S)-1-Cyano-2-(6-methyl-2-oxo-1,2-dihydroquinolin-3-yl)ethyl)-3-((S)-3,3-dimethyl-2-((4-methylpyrimidin-2-yl)amino)butanoyl)-6,6-dimethyl-3-azabicyclo[3.1.0]hexane-2-carboxamide] as the molecule, how does the IC50 read?
Answer: ≥ 1000 nM

Question: How did the IC50 turn out when `Cc1ccc2[nH]c(=O)c(C[C@H](C#N)NC(=O)C3C4C(CN3C(=O)[C@H](NC(=O)OC(C)C)C(C)(C)C)C4(C)C)cc2c1` (stereo in doubt) [Compound 202, Isopropyl N-[(1R)-1-[(1S)-2-[[(1R)-1-cyano-2-(6-methyl-2-oxo-1H-quinolin-3-yl)ethyl]carbamoyl]-6,6-dimethyl-3-azabicyclo[3.1.0]hexane-3-carbonyl]-2,2-dimethyl-propyl]carbamate] was run?
Answer: 100 to 250 nM

Question: How did the IC50 turn out when `Cc1ccc2[nH]c(=O)c(CC(C#N)NC(=O)[C@H](Cc3ccccc3)NC(=O)[C@@H](NS(=O)(=O)CC(F)(F)F)C(C)(C)C)cc2c1` (stereo partly drawn) [Compound 164, (2S)—N-((2S)-1-((1-Cyano-2-(6-methyl-2-oxo-1,2-dihydroquinolin-3-yl)ethyl)amino)-1-oxo-3-phenylpropan-2-yl)-3,3-dimethyl-2-((2,2,2-trifluoroethyl)sulfonamido)butanamide] was run?
Answer: 100 to 250 nM

Question: For `CC(C)(C)[C@H](NS(C)(=O)=O)C(=O)N1C[C@H]2[C@H]([C@H]1C(=O)NC(C#N)Cc1cc3cnccc3[nH]c1=O)C2(C)C` (stereo partly drawn) [Compound 130, (1S,2S,5S)-N-[1-cyano-2-(2-oxo-1H-1,6-naphthyridin-3-yl)ethyl]-3-[(2S)-2-(methanesulfonamido)-3,3-dimethyl-butanoyl]-6,6-dimethyl-3-azabicyclo[3.1.0]hexane-2-carboxamide], which IC50 is on record?
Answer: < 50 nM

Question: How did the IC50 turn out when `Cc1ccc2[nH]c(=O)c(C[C@@H](C#N)NC(=O)[C@@H]3C4[C@H](CN3C(=O)[C@@H](Nc3ncc(C)s3)C(C)(C)C)C4(C)C)cc2c1` (stereo in doubt) [Compound 158, (1R,2S,5S)—N—((S)-1-Cyano-2-(6-methyl-2-oxo-1,2-dihydroquinolin-3-yl)ethyl)-3-((S)-3,3-dimethyl-2-((5-methylthiazol-2-yl)amino)butanoyl)-6,6-dimethyl-3-azabicyclo[3.1.0]hexane-2-carboxamide] was run?
Answer: 50 to 100 nM

Question: For `CC(C)(C)[C@H](NC(=O)C(F)(F)F)C(=O)N1C[C@H]2[C@@H]([C@H]1C(=O)N[C@H](C#N)Cc1nc3ccccc3[nH]c1=O)C2(C)C` [Compound 185, (1R,2S,5S)—N-[(1S)-1-Cyano-2-(3-oxo-4H-quinoxalin-2-yl)ethyl]-3-[(2S)-3,3-dimethyl-2-[(2,2,2-trifluoroacetyl)amino]butanoyl]-6,6-dimethyl-3-azabicyclo[3.1.0]hexane-2-carboxamide], which IC50 is on record?
Answer: < 50 nM

Question: With `CC(C)(C)[C@H](NC(=O)C(F)(F)F)C(=O)N1C[C@H]2[C@@H]([C@H]1C(=O)N[C@@H](C#N)Cc1cc3cnccc3[nH]c1=O)C2(C)C` [Compound 173, (1R,2S,5S)—N—((R)-1-Cyano-2-(2-oxo-1,2-dihydro-1,6-naphthyridin-3-yl)ethyl)-3-((S)-3,3-dimethyl-2-(2,2,2-trifluoroacetamido)butanoyl)-6,6-dimethyl-3-azabicyclo[3.1.0]hexane-2-carboxamide] as the molecule, how does the IC50 read?
Answer: ≥ 1000 nM

Question: With `Cc1cc2cc(C[C@@H](C#N)NC(=O)[C@@H]3[C@@H]4[C@H](CN3C(=O)[C@@H](NC(=O)C(F)(F)F)C(C)(C)C)C4(C)C)c(=O)[nH]c2cc1F` [Compound 176, (1R,2S,5S)—N—((S)-1-Cyano-2-(7-fluoro-6-methyl-2-oxo-1,2-dihydroquinolin-3-yl)ethyl)-3-((S)-3,3-dimethyl-2-(2,2,2-trifluoroacetamido)butanoyl)-6,6-dimethyl-3-azabicyclo[3.1.0]hexane-2-carboxamide] as the molecule, how does the IC50 read?
Answer: 50 to 100 nM

Question: How did the IC50 turn out when `CC(C)(C)[C@H](NC(=O)C(F)(F)F)C(=O)N1C[C@H]2C([C@H]1C(=O)NC(C#N)Cc1cc3c([nH]c1=O)CCC(F)(F)C3)C2(C)C` (stereo in doubt) [Compound 125, (1R,2S,5S)—N-(1-Cyano-2-(6,6-difluoro-2-oxo-1,2,5,6,7,8-hexahydroquinolin-3-yl)ethyl)-3-((S)-3,3-dimethyl-2-(2,2,2-trifluoroacetamido)butanoyl)-6,6-dimethyl-3-azabicyclo[3.1.0]hexane-2-carboxamide] was run?
Answer: 250 to 500 nM

Question: Which IC50 does the source give for `COc1ccc2[nH]c(=O)c(CC(C#N)NC(=O)[C@@H]3C4[C@H](CN3C(=O)[C@@H](NC(=O)C(F)(F)F)C(C)(C)C)C4(C)C)cc2c1` (stereo in doubt) [Compound 109, (1R,2S,5S)—N-(1-Cyano-2-(6-methoxy-2-oxo-1,2-dihydroquinolin-3-yl)ethyl)-3-((S)-3,3-dimethyl-2-(2,2,2-trifluoroacetamido)butanoyl)-6,6-dimethyl-3-azabicyclo[3.1.0]hexane-2-carboxamide] here?
Answer: 250 to 500 nM

Question: Which IC50 does the source give for `Cc1ccc2[nH]c(=O)c(C[C@H](C#N)NC(=O)C3C4C(CN3C(=O)[C@H](NC(=O)C(C)C)C(C)(C)C)C4(C)C)cc2c1` (stereo in doubt) [Compound 204, (1S)—N-[(1R)-1-cyano-2-(6-methyl-2-oxo-1H-quinolin-3-yl)ethyl]-3-[(2R)-3,3-dimethyl-2-(2-methylpropanoylamino)butanoyl]-6,6-dimethyl-3-azabicyclo[3.1.0]hexane-2-carboxamide] here?
Answer: 50 to 100 nM

Question: How did the IC50 turn out when `Cc1ccc2[nH]c(=O)c(C[C@H](C#N)NC(=O)[C@@H]3C4[C@H](CN3C(=O)[C@@H](NS(C)(=O)=O)C(C)(C)C)C4(C)C)cc2c1` (stereo in doubt) [Compound 148, (1R,2S,5S)—N-[(1R)-1-cyano-2-(6-methyl-2-oxo-1H-quinolin-3-yl)ethyl]-3-[(2S)-2-(methanesulfonamido)-3,3-dimethyl-butanoyl]-6,6-dimethyl-3-azabicyclo[3.1.0]hexane-2-carboxamide] was run?
Answer: ≥ 1000 nM
